In article PMC9229563, “Pharmacokinetics and the Dermal Absorption of Bromochlorophene, a Cosmetic Preservative Ingredient, in Rats” (Toxics, 2022):
Where two headings read alike, the source gives them in different places.

Assays:
yeasts / moulds = test system: yeasts / moulds; design: method as in Table S1; details: ref Table S1; cited from earlier work
[1] = cited from earlier work
androgen receptor = test system: androgen receptor; design: method as in PMID 33064576; details: in silico and in vitro studies; cited from earlier work
[2] = Intravenous pharmacokinetics in rats; assay type: in vivo; details: rat; for half-life / AUC / AUC(0-inf) / clearance / Cmax / Vd: plasma, iv, n = 3; for half-life: glycerol formal, read-out: T1/2, terminal elimination half-life (converted); for clearance: read-out: CL, systemic clearance (converted); for Cmax: read-out: Cmax, peak plasma concentration; for Vd: read-out: Vd, volume of distribution
Protocol: Blood samples (>0.2 mL) for plasma were collected by cannulated right jugular vein at 1, 2, 5, 10, and 30 min, and 1, 2, 4, 6, 12, 24, 36, and 48 h post-dose. Plasma samples were harvested by centrifugation at 13,000 rpm for 10 min and stored at −20 °C until analysis.
To analyze the in vivo (dermal and i.v. application) samples, 50 µL of the plasma was used, and extraction and analysis methods were the same as in vitro samples.
In the in vivo study, the terminal elimination half-life (T1/2) was calculated to be 0.693/λz. The slope of the last phase (λz) is the individual estimate of the terminal elimination rate constant, which is calculated using log-linear regression of the terminal portions of the plasma concentration–time curves. The area under the plasma concentration–time curve from time zero to the last observation time point (AUCall) was calculated using the trapezoidal rule, and the AUC to infinity time (AUCinf) was obtained by adding Cn/λz to the AUCall (Cn: last concentration of chemical). Systemic clearance (CL) was calculated as dose/AUC. The apparent volume of the distribution (Vd) during the terminal phase was calculated as CL/λz. The peak plasma concentration (Cmax) and time to reach Cmax (Tmax) were determined directly from these observations. The relative bioavailability (F) after dermal application was calculated as F (%) = 100 (Doseiv·AUCdermal)/(Dosedermal·AUCiv).
The plasma concentration–time data were analyzed using a non-compartmental WinNonlin model (version 2.1, Pharsight, NC, USA) to acquire i.v. and dermal pharmacokinetic parameters.

glucocorticoid receptor = test system: glucocorticoid receptor; design: method as in PMID 33064576; details: in silico and in vitro studies; cited from earlier work
thyroid receptor α = test system: thyroid receptor α; design: method as in PMID 33064576; details: in silico and in vitro studies; cited from earlier work
[3] = Dermal pharmacokinetics / in vivo dermal absorption in rats; design: species or system rat
Protocol: Blood samples (approximately 0.2 mL) were taken periodically by cannulated right jugular vein at 15 and 30 min, and 1, 2, 4, 8, 12, 24, 36, and 48 h post-dose. […] To analyze the in vivo (dermal and i.v. application) samples, 50 µL of the plasma was used, and extraction and analysis methods were the same as in vitro samples. […] The slope of the last phase (λz) is the individual estimate of the terminal elimination rate constant, which is calculated using log-linear regression of the terminal portions of the plasma concentration–time curves. The area under the plasma concentration–time curve from time zero to the last observation time point (AUCall) was calculated using the trapezoidal rule, and the AUC to infinity time (AUCinf) was obtained by adding Cn/λz to the AUCall (Cn: last concentration of chemical). Systemic clearance (CL) was calculated as dose/AUC. The apparent volume of the distribution (Vd) during the terminal phase was calculated as CL/λz. The peak plasma concentration (Cmax) and time to reach Cmax (Tmax) were determined directly from these observations. […] The plasma concentration–time data were analyzed using a non-compartmental WinNonlin model (version 2.1, Pharsight, NC, USA) to acquire i.v. and dermal pharmacokinetic parameters.

[4] = design: method as in PMID 34335256; details: female rats, oral, 28 days, 500 and 1000 mg/kg; cited from earlier work
gram-negative bacteria = test system: gram-negative bacteria; design: method as in Table S1; details: ref Table S1; cited from earlier work
estrogen receptor α = test system: estrogen receptor α; design: method as in PMID 33064576; details: in silico and in vitro studies; cited from earlier work
[5] = design: method as in Table S1; details: ref Table S1; cited from earlier work
[6] = design: method as in PMID 34335256; details: hydrogel formulation, 0.262 mg/kg rat dorsal application; cited from earlier work
thyroid receptor β = test system: thyroid receptor β; design: method as in PMID 33064576; details: in silico and in vitro studies; cited from earlier work
[7] = Stability of BCP in receptor fluid (6% POE20); assay type: physicochemical; details: 0.5 mg/mL, 48 h, 32 °C, sink conditions, n = 3
Protocol: The in vitro dermal absorption study followed the guidelines of the Korea Ministry of Food and Drug Safety [15] with a Franz diffusion cell system consisting of a vision Microette auto-sampler, stirring drive, circulating water bath, stirring control, and autofill (Hanson, Chatsworth, CA, USA). The volume of the receptor fluid chamber was 12 mL and the temperature of the receptor fluid was maintained in a circulating water bath at 32 °C. […] The skin, after hydrating with normal saline for 5 min, was then placed between the donor and receptor compartments of the diffusion cells. […] Each formulation (~200 mg) was applied to 1.77 cm^2 of the donor chamber.

gram-positive bacteria = test system: gram-positive bacteria; design: method as in Table S1; details: ref Table S1; cited from earlier work

Question: For `Oc1c(Br)cc(Cl)cc1Cc1cc(Cl)cc(Br)c1O` [BCP, 2,2'-Methylenbis (6-bromo-4-chlorophenol)], which “Effect of preservative, yeasts / moulds” value (yeasts / moulds) is on record?
Answer: The value was “inadequate”.

Question: And the LogPow ([1]; ref Table S1)?
Answer: The LogPow was 6.12.

Question: And the “Action on androgen receptor” value (androgen receptor)?
Answer: Its value is “antagonist”.

Question: What about the half-life ([2]; i.v. 0.2 mg/kg) of the same molecule?
Answer: The half-life was 2070 ± 352 min.

Question: What about the AUC ([2]; i.v. 0.2 mg/kg) of the same molecule?
Answer: Its AUC is 4190 ± 320 ng·h/mL.

Question: What about the AUC(0-inf) ([2]; i.v. 0.2 mg/kg) of the same molecule?
Answer: Its AUC(0-inf) is 5860 ± 767 ng·h/mL.

Question: And the clearance ([2]; i.v. 0.2 mg/kg)?
Answer: The clearance was 0.576 mL/min/kg.

Question: And the Cmax ([2]; i.v. 0.2 mg/kg)?
Answer: The Cmax was 4190 ± 1690 ng/mL.

Question: And the Vd ([2]; i.v. 0.2 mg/kg)?
Answer: Its Vd is 1.74 ± 0.072 L/kg.

Question: And the half-life ([2]; i.v. 1 mg/kg)?
Answer: Its half-life is 1830 ± 110 min.

Question: What about the AUC ([2]; i.v. 1 mg/kg) of the same molecule?
Answer: The AUC was 30500 ng·h/mL.

Question: What about the AUC(0-inf) ([2]; i.v. 1 mg/kg) of the same molecule?
Answer: Its AUC(0-inf) is 41600 ng·h/mL.

Question: What about the clearance ([2]; i.v. 1 mg/kg) of the same molecule?
Answer: The clearance was 0.401 mL/min/kg.

Question: And the Cmax ([2]; i.v. 1 mg/kg)?
Answer: Its Cmax is 11400 ng/mL.

Question: And the Vd ([2]; i.v. 1 mg/kg)?
Answer: Its Vd is 1.06 ± 0.0502 L/kg.

Question: And the “AUCs (AUCall and AUCinf) in plasma at 1 mg/kg versus 0.2 mg/kg” value ([2]; i.v.)?
Answer: The value was “approximately 7 fold”.

Question: And the “Action on glucocorticoid receptor” value (glucocorticoid receptor)?
Answer: The value was “antagonist”.

Question: What about the “Action on thyroid receptor α” value (thyroid receptor α) of the same molecule?
Answer: Its value is “antagonist”.

Question: And the “Representative (total) dermal absorption of BCP” value ([3]; determined from the in vivo PK / dermal study in rats)?
Answer: The value was 12.20 ± 2.63%.

Question: And the bioavailability ([3]; rat, plasma, topical, 234 mg/kg formulation, read-out: F, dermal bioavailability)?
Answer: Its bioavailability is 12.2 ± 2.63%.

Question: And the “Hematological and histopathological characteristics” value [4]?
Answer: The value was “altered”.

Question: And the “Effect of preservative, gram-negative bacteria” value (gram-negative bacteria)?
Answer: Its value is “moderate”.

Question: What about the “Action on estrogen receptor α” value (estrogen receptor α) of the same molecule?
Answer: Its value is “antagonist”.

Question: What about the Solubility in water [5] of the same molecule?
Answer: Its Solubility in water is < 5 mg/L.

Question: And the BCP absorption [6]?
Answer: Its BCP absorption is 29.25 ± 6.09%.

Question: And the “Action on thyroid receptor β” value (thyroid receptor β)?
Answer: The value was “antagonist”.

Question: What about the “Stability in 6% POE20” value [7] of the same molecule?
Answer: Its value is “stable”.

Question: And the “Effect of preservative, gram-positive bacteria” value (gram-positive bacteria)?
Answer: The value was “good”.

Question: Which LogPow [1] does the source give for `CCCCC(CC)COC(=O)C=Cc1ccc(OC)cc1` (centres unmarked) [ethylhexyl methoxycinnamate] here?
Answer: The LogPow was 5.96.

Question: Which LogPow [1] does the source give for `CC1CC(OC(=O)c2ccccc2O)CC(C)(C)C1` (centres unmarked) [homosalate] here?
Answer: The LogPow was 5.94.

Question: For `COc1ccc(C(=O)c2ccccc2)c(O)c1` [benzophenone-3], which LogPow [1] is on record?
Answer: Its LogPow is 3.58.

Question: Which LogPow [1] does the source give for `C[C@]12CC[C@H]3[C@@H](CCC4=CC(=O)CC[C@@]43C)[C@@H]1CC[C@@H]2O` [testosterone, reference compound] here?
Answer: Its LogPow is 3.3.
